Measured values: patent publication US8362000B2, “Azetidinyl diamides as monoacylglycerol lipase inhibitors” (Janssen Pharmaceutica NV, priority 2009, dated 2013)
Where a chain is given by its changes, count along the chain named. Read-outs that look alike come from different tables or passages of the source.

Experiments:
mutant MGL = target: T1, mutant MGL (Homo sapiens, UniProt Q99685, L169S/L176S); test: MGL ThermoFluor assay - mutant; type: binding
T1 sequence (Q99685 1-303 L169S/L176S): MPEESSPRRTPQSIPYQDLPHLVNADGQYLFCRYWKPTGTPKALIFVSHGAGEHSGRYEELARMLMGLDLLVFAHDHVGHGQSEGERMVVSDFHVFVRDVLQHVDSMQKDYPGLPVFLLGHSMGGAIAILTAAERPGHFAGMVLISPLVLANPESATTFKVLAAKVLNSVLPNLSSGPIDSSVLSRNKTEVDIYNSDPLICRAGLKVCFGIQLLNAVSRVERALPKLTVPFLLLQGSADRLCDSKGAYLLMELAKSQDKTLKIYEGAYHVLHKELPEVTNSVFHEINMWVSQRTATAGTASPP

[1] = target: T2, purified wild type MGL (wt-MGLL 6H-11-313) (Homo sapiens, UniProt Q99685)
T2 sequence (Q99685 1-303): T1 sequence (Q99685 1-303 L169S/L176S) with S169L, S176L

[2] = ThermoFluor, compound concentration measured by qNMR, read-out: MGL mutant ThermoFluor qKd (μM) (using qNMR conc.)
[3] = ThermoFluor, compound concentration measured by qNMR, read-out: MGL mutant ThermoFluor qKd (using qNMR conc.)
[4] = ThermoFluor thermal stability binding assay, read-out: MGL mutant ThermoFluor Kd
[5] = ThermoFluor concentration-response, read-out: MGL mutant ThermoFluor Kd
[6] = compound concentration measured by qNMR, read-out: MGL mutant ThermoFluor qKd (using qNMR conc.)

SMILES	IC50 [1]	Kd (mutant MGL; [5])	further results
COc1cncc(-c2ccc3[nH]c(C(=O)N4CC(N5CCN(C(=O)c6nccs6)CC5)C4)c(C)c3c2)c1 [Cpd 1175]	66 nM	–	Kd (mutant MGL; [2]): 0.01 µM
O=C(c1ccc2c(ccn2-c2ccc(F)cc2)c1)N1CC(N2CCN(C(=O)C(F)(F)F)CC2)C1 [Cpd 1079, 1-(4-Fluorophenyl)-5-({3-[4-(trifluoroacetyl)piperazin-1-yl]azetidin-1-yl}carbonyl)-1H-indole]	9 nM	–	Kd (mutant MGL; [3]): 0.272 µM
O=C(c1ccccc1)N1CCN(C2CN(C(=O)c3ccc4c(ccn4-c4ccc(F)cn4)c3)C2)CC1 [Cpd 596, 1-(5-Fluoropyridin-2-yl)-5-({3-[4-(phenylcarbonyl)piperazin-1-yl]azetidin-1-yl}carbonyl)-1H-indole]	543 nM	–	Kd (mutant MGL; [3]): 0.628 µM
O=C(c1ccccc1)N1CCN(C2CN(C(=O)c3cc4cc(Cl)ccc4o3)C2)CC1 [Cpd 1491]	> 16700 nM	–	Kd (mutant MGL; [4]): 12.5 µM
COc1cccc2c(C)c(C(=O)N3CCN(C4CN(C(=O)c5cscn5)C4)CC3)[nH]c12 [Cpd 857]	8720 nM	3.33 µM	–
O=C(CCCc1ccccc1)N1CC(N2CCN(C(=O)c3nccs3)CC2)C1 [Cpd 1434]	> 16700 nM	–	Kd (mutant MGL; [4]): 53.8 µM
Cc1cn(-c2ccc(C(=O)N3CC(N4CCN(C(=O)c5nccs5)CC4)C3)cc2)c2ccccc12 [Cpd 1413]	15 nM	–	Kd (mutant MGL; [2]): 0.003 µM
O=C(c1ccc2c(ccn2-c2cccnc2)c1)N1CC(N2CCN(C(=O)c3ccc[nH]3)CC2)C1 [Cpd 1247, 1-Pyridin-3-yl-5-({3-[4-(1H-pyrrol-2-ylcarbonyl)piperazin-1-yl]azetidin-1-yl}carbonyl)-1H-indole]	539 nM	–	Kd (mutant MGL; [3]): 0.65 µM
NC(=O)c1cccc(-n2ccc3cc(C(=O)N4CC(N5CCN(C(=O)c6ccccc6)CC5)C4)ccc32)c1 [Cpd 594, 3-[5-({3-[4-(Phenylcarbonyl)piperazin-1-yl]azetidin-1-yl}carbonyl)-1H-indol-1-yl]benzamide]	449 nM	–	Kd (mutant MGL; [2]): 0.743 µM
O=C(c1ccc(Oc2ccc(Cl)cn2)cc1)N1CC(N2CCN(C(=O)c3nccs3)CC2)C1 [Cpd 717]	147 nM	0.067 µM	–
O=C(c1ccccc1)N1CCN(C2CN(C(=O)c3sc4cc(C(F)(F)F)ccc4c3C3CC3)C2)CC1 [Cpd 515]	455 nM	–	Kd (mutant MGL; [4]): 0.011 µM
O=C(c1cscn1)N1CCN(C2CN(C(=O)c3cccc4nc(-c5ccccc5)oc34)C2)CC1 [Cpd 1237]	393 nM	–	Kd (mutant MGL; [4]): 0.064 µM
NC(=O)c1ccc(Cn2ncc3cc(C(=O)N4CC(N5CCN(C(=O)c6nccs6)CC5)C4)ccc32)cc1 [Cpd 1044, 4-{[5-({3-[4-(1,3-Thiazol-2-ylcarbonyl)piperazin-1-yl]azetidin-1-yl]carbonyl)-1H-indazol-1-yl}methyl}benzamide]	718 nM	–	Kd (mutant MGL; [6]): 0.945 µM
O=C(c1cc2cc(Br)cnc2o1)N1CC(N2CCN(C(=O)c3nccs3)CC2)C1 [Cpd 864]	10200 nM	2.41 µM	–
O=C(c1ccccc1)N1CCN(C2CN(C(=O)c3ccc(-c4cccc(C(F)(F)F)c4)cc3Cl)C2)CC1 [Cpd 252, 1-(1-{[3-Chloro-3′-(trifluoromethyl)biphenyl-4-yl]carbonyl}azetidin-3-yl)-4-(phenylcarbonyl)piperazine]	80.8 nM	–	Kd (mutant MGL; [4]): 0.05 µM
CC(C)=Cc1c(C(=O)N2CC(N3CCN(C(=O)c4ccccc4)CC3)C2)sc2cc(C(F)(F)F)ccc12 [Cpd 511]	240 nM	–	Kd (mutant MGL; [4]): 0.002 µM
Cc1cc(-n2ccc3cc(C(=O)N4CC(N5CCN(C(=O)c6ccccc6)CC5)C4)ccc32)ccc1C#N [Cpd 566, 2-Methyl-4-[5-({3-[4-(phenylcarbonyl)piperazin-1-yl]azetidin-1-yl}carbonyl)-1H-indol-1-yl]benzonitrile]	14 nM	–	Kd (mutant MGL; [2]): 0.031 µM
O=C(c1ccc2c(cnn2CCc2ccc(F)cc2)c1)N1CC(N2CCN(C(=O)c3nccs3)CC2)C1 [Cpd 1049, 1-[2-(4-Fluorophenyl)ethyl]-5-({3-[4-(1,3-thiazol-2-ylcarbonyl)piperazin-1-yl]azetidin-1-yl}carbonyl)-1H-indazole]	10 nM	–	Kd (mutant MGL; [6]): 0.05 µM
Cc1ccc2c(C(F)(F)F)c(C(=O)N3CC(N4CCN(C(=O)c5cscn5)CC4)C3)sc2c1 [Cpd 712, 1-(1-{[6-Methyl-3-(trifluoromethyl)-1-benzothiophen-2-yl]carbonyl}azetidin-3-yl)-4-(1,3-thiazol-4-ylcarbonyl)piperazine]	127 nM	0.028 µM	–
Cc1cc(-n2ccc3cc(C(=O)N4CC(N5CCN(C(=O)c6nccs6)CC5)C4)ccc32)ccc1C#N [Cpd 1375, 2-Methyl-4-[5-({3-[4-(1,3-thiazol-2-ylcarbonyl)piperazin-1-yl]azetidin-1-yl}carbonyl)-1H-indol-1-yl]benzonitrile]	< 5 nM	–	Kd (mutant MGL; [2]): 0.003 µM

SMILES	IC50 [1]	Kd (mutant MGL; [5])	further results
Cc1nn(-c2ccc(Cl)c(Cl)c2)c(C)c1C(=O)N1CC(N2CCN(C(=O)c3nccs3)CC2)C1 [Cpd 1225]	273 nM	0.042 µM	–
O=C(c1ccc(-n2ccc(C(F)(F)F)n2)cc1)N1CC(N2CCN(C(=O)c3nccs3)CC2)C1 [Cpd 1249]	605 nM	0.241 µM	–
O=C(c1ccc2nc(-c3cccc(C(F)(F)F)c3)oc2c1)N1CC(N2CCN(C(=O)c3nccs3)CC2)C1 [Cpd 1158, 6-({3-[4-(1,3-Thiazol-2-ylcarbonyl)piperazin-1-yl]azetidin-1-yl}carbonyl)-2-[3-(trifluoromethyl)phenyl]-1,3-benzoxazole]	42 nM	0.008 µM	–
Cc1nccc(-n2ccc3cc(C(=O)N4CC(N5CCN(C(=O)c6nccs6)CC5)C4)ccc32)n1 [Cpd 1216, 1-(2-Methylpyrimidin-4-yl)-5-({3-[4-(1,3-thiazol-2-ylcarbonyl)piperazin-1-yl]azetidin-1-yl}carbonyl)-1H-indole]	216 nM	–	Kd (mutant MGL; [3]): 0.022 µM
O=C(c1ccc(-c2ccccc2)cc1)N1CC(N2CCN(C(=O)c3cocn3)CC2)C1 [Cpd 1222]	266 nM	–	Kd (mutant MGL; [4]): 0.068 µM
O=C(c1ccc2c(c1)OCCCO2)N1CC(N2CCN(C(=O)c3nccs3)CC2)C1 [Cpd 770]	740 nM	–	Kd (mutant MGL; [3]): 1.13 µM
O=C(c1cc(F)cc(-c2ccccc2)c1)N1CC(N2CCN(C(=O)c3cscn3)CC2)C1 [Cpd 1273]	1610 nM	1.83 µM	–
Cc1ccc2c(C(F)(F)F)c(C(=O)N3CC(N4CCN(C(=O)c5ccccc5)CC4)C3)sc2c1 [Cpd 510, 1-(1-{[6-Methyl-3-(trifluoromethyl)-1-benzothiophen-2-yl]carbonyl}azetidin-3-yl)-4-(phenylcarbonyl)piperazine]	181 nM	0.068 µM	–
Cc1cn(-c2ccc(F)cc2)c2ccc(C(=O)N3CCN(C4CN(C(=O)c5cscn5)C4)CC3)cc12 [Cpd 1230, 1-(4-Fluorophenyl)-3-methyl-5-({4-[1-(1,3-thiazol-4-ylcarbonyl)azetidin-3-yl]piperazin-1-yl}carbonyl)-1H-indole]	307 nM	0.009 µM	–
O=C(c1cnc2c(ccn2Cc2ccc(F)cc2)c1)N1CC(N2CCN(C(=O)c3nccs3)CC2)C1 [Cpd 1043, 1-(4-Fluorobenzyl)-5-({3-[4-(1,3-thiazol-2-ylcarbonyl)piperazin-1-yl]azetidin-1-yl}carbonyl)-1H-pyrrolo[2,3-b]pyridine]	16 nM	–	Kd (mutant MGL; [6]): 0.055 µM
Cn1cc(Cc2ccc(F)cc2)c2ccc(C(=O)N3CC(N4CCN(C(=O)c5nccs5)CC4)C3)cc21 [Cpd 1026]	16 nM	–	Kd (mutant MGL; [6]): 0.001 µM
O=C(c1ccc2c(c1)[nH]c(=O)n2C1CCC(F)(F)CC1)N1CC(N2CCN(C(=O)c3nccs3)CC2)C1 [Cpd 932]	104 nM	0.008 µM	–
O=C(c1ccc2c(ccn2-c2ccc(F)cn2)c1)N1CC(N2CCN(C(=O)c3nccs3)CC2)C1 [Cpd 1121, 1-(5-Fluoropyridin-2-yl)-5-({3-[4-(1,3-thiazol-2-ylcarbonyl)piperazin-1-yl]azetidin-1-yl}carbonyl)-1H-indole]	18 nM	–	Kd (mutant MGL; [3]): 0.042 µM
CC(C)n1c(C(F)(F)F)nc2cc(C(=O)N3CC(N4CCN(C(=O)c5nccs5)CC4)C3)ccc21 [Cpd 740]	294 nM	0.035 µM	–
CN(C(=O)Cn1ccc2cc(C(=O)N3CC(N4CCN(C(=O)c5cscn5)CC4)C3)ccc21)c1ccccc1 [Cpd 1032]	3020 nM	–	Kd (mutant MGL; [6]): 1.1 µM
O=C(c1ccc2c(ccn2-c2ccc(F)cc2)c1)N1CC(N2CCN(C(=O)c3ccc(Cl)o3)CC2)C1 [Cpd 1425]	9 nM	–	Kd (mutant MGL; [2]): 0.019 µM
O=C(c1cc2cc(C(F)(F)F)ccc2[nH]1)N1CCN(C2CN(C(=O)c3nccs3)C2)CC1 [Cpd 747]	377 nM	0.111 µM	–
Cc1nc2cc(C(=O)N3CC(N4CCN(C(=O)c5nccs5)CC4)C3)ccc2n1-c1ccc(F)c(F)c1 [Cpd 1206]	171 nM	–	Kd (mutant MGL; [6]): 0.018 µM
O=C(c1ccc(-c2cccc(C(F)(F)F)c2)cc1)N1CC(N2CCN(C(=O)c3cocn3)CC2)C1 [Cpd 1094]	11 nM	–	Kd (mutant MGL; [2]): 0.012 µM
